According to publication PMC4039224, “Cadherin-11 in poor prognosis malignancies and rheumatoid arthritis: common target, common therapies” (Oncotarget, 2013):

Key:
[1] = molecular target: T1, mouse CDH11 (EC1-2 domain) (Mus musculus, UniProt P55288); assay: SPR competition of homophilic CDH11 binding, Biacore T200 CM5; settings: 6.25-200 uM compound co-injected with 2.5 uM EC1-2; pH 7.4 HEPES, 150 mM NaCl, 3 mM CaCl2, 1% DMSO; inhibits homodimerization, W-binding pocket (modelled); salt form ambiguous (b61 vs Table 1)
T1 construct: extracellular domains EC1-EC2 only; wild-type soluble EC1-2, and C-terminally cysteine-tagged EC1-2 immobilised on the SPR chip; forms homodimer
T1 sequence (P55288 54-268 limits assumed): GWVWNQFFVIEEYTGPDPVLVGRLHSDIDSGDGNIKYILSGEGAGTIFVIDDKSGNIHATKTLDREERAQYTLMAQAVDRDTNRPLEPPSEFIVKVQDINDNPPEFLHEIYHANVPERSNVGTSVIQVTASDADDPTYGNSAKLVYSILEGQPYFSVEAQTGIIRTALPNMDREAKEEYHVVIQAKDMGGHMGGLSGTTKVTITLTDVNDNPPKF

[2] = molecular target: wild type mouse cadherin-11 (CDH11) EC1-2 (mouse); assay: native gel or EMSA; purified CDH11 EC1-2 without and with celecoxib (in DMSO, 1:1 molar ratio); monomer and dimer fractions
[3] = molecular target: T1, mouse CDH11 (EC1-2 domain); assay: native gel, dimer fraction; type: binding; settings: 1:1 molar ratio with purified CDH11 EC1-2, compound in DMSO; inhibits homodimerization; species of the gel protein not stated again

Oc1ccc(-c2cccnc2-c2ccccc2)cc1 [Sd-133, 4-(2-phenyl-3-pyridyl)phenol]
SPR competition of homophilic CDH11 binding, Biacore T200 CM5 [1]: Sd-133 competed with CDH11 (ligand) in binding to immobilized CDH11 protein

wild type mouse cadherin-11 (CDH11) EC1-2 (domain or fragment)
stoichiometry N [2]: 2

Cc1ccc(-c2cc(C(F)(F)F)nn2-c2ccc(S(N)(=O)=O)cc2)cc1 [celecoxib, 4-[5-(4-methylphenyl)-3-(trifluoromethyl)pyrazol-1-yl]benzenesulfonamide]
native gel, dimer fraction [3]: Note that celecoxib reduces the dimer fraction
